{
  "source": "patent US20250144067A1",
  "about": "“PERSONALIZED STARVATION THERAPY FOR CANCER” (Faeth Therapeutics, Inc., priority 2021, published 2025)",
  "key": {"[1]": {"tested_on": "NCI-H292 lung cancer cells", "assay": "FDA drug screening, complete media vs cholesterol-free media with simvastatin (TABLE 2)", "assay_type": "cell-based, human", "settings": "for Cholesterol-free media + simvastatin (0.04 μM) / Complete Media: NCI-H292 cells"}, "[2]": {"tested_on": "NCI-H292 lung cancer cells", "assay": "FDA drug screening, complete media vs cholesterol-free media without statin (TABLE 1)", "assay_type": "cell-based, human"}, "[3]": {"settings": "drug in cholesterol-free media with simvastatin 0.04 μM"}, "[4]": {"settings": "complete media vs cholesterol-free media + simvastatin (0.04 μM), >0 enhanced anti-cancer activity, about 0 neutral, <0 antagonist"}, "[5]": {"settings": "cholesterol-free media with simvastatin 0.04 μM, cell growth value in FDA drug screen"}, "[6]": {"settings": "complete media, cell growth value in FDA drug screen"}, "[7]": {"settings": "complete media minus cholesterol-free media + simvastatin, >0 enhanced anti-cancer activity, about 0 neutral, <0 antagonist"}, "[8]": {"settings": "Complete minus Cholesterol-free, >0 enhanced anti-cancer activity, about 0 neutral, <0 antagonist"}, "[9]": {"settings": "NCI-H292 cells, cholesterol-free media without statin"}, "[10]": {"settings": "FDA library drug in cholesterol-free media with simvastatin 0.04 μM"}, "[11]": {"settings": "FDA library drug in complete media"}, "[12]": {"settings": "complete media vs cholesterol-free media + simvastatin (0.04 μM), […]"}, "[13]": {"settings": "NCI-H292 cells in cholesterol-free media without statin"}, "[14]": {"settings": "NCI-H292 cells in complete media"}, "[15]": {"settings": "cholesterol-free media with simvastatin 0.04 μM, FDA drug library screen (TABLE 2)"}, "[16]": {"settings": "complete media, FDA drug library screen (TABLE 2)"}, "[17]": {"settings": "complete media minus cholesterol-free media + simvastatin (0.04 μM), >0 enhanced anti-cancer activity, about 0 neutral, <0 antagonist"}, "[18]": {"settings": "Complete minus Cholesterol-free, greater than 0 enhanced anti-cancer activity, about 0 neutral, below 0 antagonists"}, "[19]": {"settings": "FDA drug library screen, cholesterol-free media with simvastatin 0.04 μM"}, "[20]": {"settings": "FDA drug library screen, complete media"}, "[21]": {"settings": "NCI-H292 cells, cholesterol-free media without statin, FDA drug library screen"}, "[22]": {"settings": "NCI-H292 cells, complete media, FDA drug library screen"}, "[23]": {"settings": "complete vs cholesterol-free media, […]"}},
  "data": [
    {"compound": "CCOC(=O)[C@H](CCc1ccccc1)N[C@@H](C)C(=O)N1[C@H](C(=O)O)C[C@H]2CCCC[C@@H]21", "note": "[Trandolapril]", "values": [
      {"measurement": "Cholesterol-free media + simvastatin (0.04 μM)", "setting": "[1]; [3]", "value": 1.441},
      {"measurement": "Complete Media", "setting": "[1]; drug in complete media", "value": 1.221},
      {"measurement": "Difference", "setting": "[1]; [4]", "value": "−0.22"},
      {"measurement": "Difference", "setting": "[2]; Complete minus Cholesterol-free, greater than 0 enhanced anti-cancer activity, about 0 neutral, below 0 antagonist", "value": "−0.10"},
      {"measurement": "Cholesterol-free", "setting": "[2]; NCI-H292 cells, FDA drug library screen, cholesterol-free media without statin", "value": 1.068},
      {"measurement": "Complete", "setting": "[2]; NCI-H292 cells, FDA drug library screen, complete media", "value": 0.9671}
    ]},
    {"compound": "O=C(O)c1cc(=O)[nH]c(=O)[nH]1", "note": "[Orotic acid]", "values": [
      {"measurement": "Cholesterol-free media + simvastatin (0.04 μM)", "setting": "[1]; [5]", "value": 1.191},
      {"measurement": "Complete Media", "setting": "[1]; [6]", "value": 1.261},
      {"measurement": "Difference", "setting": "[1]; [7]", "value": 0.07},
      {"measurement": "Difference", "setting": "[2]; [8]", "value": "−0.23"},
      {"measurement": "Cholesterol-free", "setting": "[2]; [9]", "value": 1.001},
      {"measurement": "Complete", "setting": "[2]; NCI-H292 cells, complete media", "value": 0.7657}
    ]},
    {"compound": "Cc1ccc([C@@H]2O[C@H](CO)[C@@H](O)[C@H](O)[C@H]2O)cc1Cc1ccc(-c2ccc(F)cc2)s1.O", "note": "[Canagliflozin (hemihydrate)]", "values": [
      {"measurement": "Cholesterol-free media + simvastatin (0.04 μM)", "setting": "[1]; [10]", "value": 1.34},
      {"measurement": "Complete Media", "setting": "[1]; [11]", "value": 0.8924},
      {"measurement": "Difference", "setting": "[1]; [12]", "value": "−0.45"},
      {"measurement": "Difference", "setting": "[2]; Complete minus Cholesterol-free, […]", "value": "−0.51"},
      {"measurement": "Cholesterol-free", "setting": "[2]; [13]", "value": 1.347},
      {"measurement": "Complete", "setting": "[2]; [14]", "value": 0.8359}
    ]},
    {"compound": "CCCN1CC(c2ccc(S(C)(=O)=O)cc2)=C(c2ccc(C)cc2)C1=O", "note": "[Imrecoxib]", "values": [
      {"measurement": "Cholesterol-free media + simvastatin (0.04 μM)", "setting": "[1]; [15]", "value": 1.183},
      {"measurement": "Complete Media", "setting": "[1]; [16]", "value": 1.141},
      {"measurement": "Difference", "setting": "[1]; [17]", "value": "−0.04"},
      {"measurement": "Difference", "setting": "[2]; [18]", "value": "−0.54"},
      {"measurement": "Cholesterol-free", "setting": "[2]; [13]", "value": 1.763},
      {"measurement": "Complete", "setting": "[2]; [14]", "value": 1.221}
    ]},
    {"compound": "CC(=O)O[C@]1(C(C)=O)CC[C@H]2[C@@H]3C=C(C)C4=CC(=O)CC[C@]4(C)[C@H]3CC[C@@]21C", "note": "[Megestrol acetate]", "values": [
      {"measurement": "Cholesterol-free media + simvastatin (0.04 μM)", "setting": "[1]; [10]", "value": 1.252},
      {"measurement": "Complete Media", "setting": "[1]; [11]", "value": 0.9647},
      {"measurement": "Difference", "setting": "[1]; [4]", "value": "−0.29"},
      {"measurement": "Difference", "setting": "[2]; [8]", "value": "−0.26"},
      {"measurement": "Cholesterol-free", "setting": "[2]; [9]", "value": 1.189},
      {"measurement": "Complete", "setting": "[2]; NCI-H292 cells, complete media", "value": 0.9289}
    ]},
    {"compound": "Cc1ncc(C[n+]2csc(CCO)c2C)c(N)n1", "note": "[Thiamine monochloride]", "values": [
      {"measurement": "Cholesterol-free media + simvastatin (0.04 μM)", "setting": "[1]; [19]", "value": 1.042},
      {"measurement": "Complete Media", "setting": "[1]; [20]", "value": 0.9007},
      {"measurement": "Difference", "setting": "[1]; [4]", "value": "−0.14"},
      {"measurement": "Difference", "setting": "[2]; [8]", "value": "−0.23"},
      {"measurement": "Cholesterol-free", "setting": "[2]; [9]", "value": 0.9486},
      {"measurement": "Complete", "setting": "[2]; NCI-H292 cells, complete media", "value": 0.7138}
    ]},
    {"compound": "CC(C)(CO)[C@H](O)C(=O)NCCC(=O)O.[Na]", "note": "[D-Pantothenic acid (sodium)]", "values": [
      {"measurement": "Cholesterol-free media + simvastatin (0.04 μM)", "setting": "[1]; [3]", "value": 1.102},
      {"measurement": "Complete Media", "setting": "[1]; drug in complete media", "value": 0.858},
      {"measurement": "Difference", "setting": "[1]; [4]", "value": "−0.24"},
      {"measurement": "Difference", "setting": "[2]; [8]", "value": "−0.03"},
      {"measurement": "Cholesterol-free", "setting": "[2]; [21]", "value": 1.02},
      {"measurement": "Complete", "setting": "[2]; [22]", "value": 0.9879}
    ]},
    {"compound": "Gilteritinib hemifumarate", "values": [
      {"measurement": "Cholesterol-free media + simvastatin (0.04 μM)", "setting": "[1]; [10]", "value": 0.9393},
      {"measurement": "Complete Media", "setting": "[1]; [11]", "value": 0.4057},
      {"measurement": "Difference", "setting": "[1]; [12]", "value": "−0.53"},
      {"measurement": "Cholesterol-free", "setting": "[2]; [21]", "value": 0.3721},
      {"measurement": "Complete", "setting": "[2]; [22]", "value": 0.7198},
      {"measurement": "Difference", "setting": "[2]; [23]", "value": 0.35}
    ]},
    {"compound": "CN1c2c(nc(N)[nH]c2=O)NC[C@@H]1CNc1ccc(C(=O)N[C@@H](CCC(=O)O)C(=O)O)cc1", "note": "[Levomefolic acid]", "values": [
      {"measurement": "Cholesterol-free media + simvastatin (0.04 μM)", "setting": "[1]; [15]", "value": 0.9044},
      {"measurement": "Complete Media", "setting": "[1]; [16]", "value": 0.8568},
      {"measurement": "Difference", "setting": "[1]; [17]", "value": "−0.05"},
      {"measurement": "Cholesterol-free", "setting": "[2]; [9]", "value": 1.808},
      {"measurement": "Complete", "setting": "[2]; NCI-H292 cells, complete media", "value": 1.368},
      {"measurement": "Difference", "setting": "[2]; complete vs cholesterol-free media, greater than 0 enhanced anti-cancer activity, about 0 neutral, below 0 antagonists", "value": "−0.44"}
    ]},
    {"compound": "OC[C@@H](O)[C@H](O)[C@@H](O)CO", "note": "[Xylitol]", "values": [
      {"measurement": "Cholesterol-free media + simvastatin (0.04 μM)", "setting": "[1]; [3]", "value": 1.234},
      {"measurement": "Complete Media", "setting": "[1]; drug in complete media", "value": 1.073},
      {"measurement": "Difference", "setting": "[1]; [4]", "value": "−0.16"},
      {"measurement": "Difference", "setting": "[2]; [8]", "value": "−0.26"},
      {"measurement": "Cholesterol-free", "setting": "[2]; [9]", "value": 1.384},
      {"measurement": "Complete", "setting": "[2]; NCI-H292 cells, complete media", "value": 1.123}
    ]},
    {"compound": "NC(=O)[C@@H]1CC[C@@H]2CN1C(=O)N2OS(=O)(=O)O", "note": "[Avibactam (sodium)]", "values": [
      {"measurement": "Cholesterol-free media + simvastatin (0.04 μM)", "setting": "[1]; [5]", "value": 1.031},
      {"measurement": "Complete Media", "setting": "[1]; [6]", "value": 1.132},
      {"measurement": "Difference", "setting": "[1]; [7]", "value": 0.10},
      {"measurement": "Difference", "setting": "[2]; [18]", "value": "−0.74"},
      {"measurement": "Cholesterol-free", "setting": "[2]; [13]", "value": 1.514},
      {"measurement": "Complete", "setting": "[2]; [14]", "value": 0.7743}
    ]},
    {"compound": "Bleomycin (hydrochloride)", "values": [
      {"measurement": "Cholesterol-free media + simvastatin (0.04 μM)", "setting": "[1]; [19]", "value": 0.184},
      {"measurement": "Complete Media", "setting": "[1]; [20]", "value": 0.1023},
      {"measurement": "Difference", "setting": "[1]; [12]", "value": "−0.08"},
      {"measurement": "Cholesterol-free", "setting": "[2]; [21]", "value": 0.4328},
      {"measurement": "Complete", "setting": "[2]; [22]", "value": 0.5195},
      {"measurement": "Difference", "setting": "[2]; [23]", "value": 0.09}
    ]}
  ]
}
